System: human patients suffering from osteoarthritis
Assay: Clinical study in osteoarthritis patients: patient-recorded adverse side effects
Format: in vivo
Conditions: 4 weeks
From the text: Four groups of patients were selected and each group was given one or other of the following medications over a four week period:
All patients were aged from 45-80 and had been suffering from chronic knee pain due to osteoarthritis for at least 6 months. Patients went through a washout period of their existing osteoarthritis treatments. […] At the beginning of the study, and also at conclusion of each subsequent week, patients were required to visit a physician and complete a WOMAC questionnaire and a Global Pain Rating Assessment.
In terms of adverse side effects patients were asked to keep a record of these, if any.

Structure (SMILES): CC(C)Cc1ccc(C(C)C(=O)O)cc1 (centres unmarked) [Ibuprofen, ibuprofen]
- adverse side effects recorded (Ibuprofen High group: 2 × 300 mg ibuprofen tablets four times daily, 2,400 mg per day, both related to gastric discomfort): two probable adverse effects
- adverse side effects recorded (Ibuprofen Low group: 2 × 150 mg ibuprofen tablets four times daily, 1,200 mg per day): no confirmed or probable adverse side effects
